Patent US20230285457A1, “NANOPARTICLES FOR CANCER TREATMENT” (Universidad de Guadalajara, priority 2019, published 2023)

Assay: Quantification of the DOX encapsulation percentage in the nanoparticle
Assay type: physicochemical
Conditions: DOX with respect to the mass of PLGA in the nanoparticles; mean ± DE, n = 3
Method: To evaluate the DOX release profile contained in anti-GZMB PLGA/DOX/Ch/ICG NPs, firstly, the quantification of the encapsulation percentage in the nanoparticle was performed by dissolving the PLGA NPs pellet in acetone, quantifying the fluorescence intensity and interpolating fluorescence intensity against DOX standard; this assay was performed in fluorescence plates of 96-well Clear Bottom (Corning®—CLS3904) using excitation and emission at 488 and 560 nm, respectively.

Encapsulation percentage (w/w): 7.32 ± 1.4 percentage (w/w)
Structure (SMILES): COc1cccc2c1C(=O)c1c(O)c3c(c(O)c1C2=O)C[C@@](O)(C(=O)CO)C[C@@H]3O[C@H]1C[C@H](N)[C@H](O)[C@H](C)O1 [DOX, doxorubicin]
